Data set [1] in a line: Toxicity in streptozocin-induced diabetic Kunming mouse assessed as effect on body weight at 50 mg/kg, po administered once daily for 18 days measured every 6 days starting from day 1 during compound dosing. Type of data set: organism-based. The note with it: in vivo.
Data set [2] is described as follows: Non-competitive inhibition of baker's yeast alpha-glucosidase using varying levels of phenol-alphaD-glycopyranoside as substrate preincubated for 10 mins followed by substrate addition and measured after 30 mins by double reciprocal plot analysis. More on the design: species or system Saccharomyces cerevisiae.
In data set [3] the test system is Mus musculus. The data set can be described thus: Hypoglycemic activity in streptozocin-induced diabetic Kunming mouse assessed as reduction in blood glucose level at 50 mg/kg, po treated 30 mins prior to glucose challenge and measured up to 210 mins by OGTT. Type of data set: functional, organism-based.
The subject of the next data set is Saccharomyces cerevisiae. The data set can be described thus: Non-competitive inhibition of baker's yeast alpha-glucosidase assessed as Km for substrate using varying levels of phenol-alphaD-glycopyranoside as substrate preincubated for 10 mins followed by substrate addition and measured after 30 mins by double reciprocal plot analysis.
Data set [4] concerns Mus musculus. The data set can be described thus: Hypoglycemic activity in streptozocin-induced diabetic Kunming mouse assessed as blood glucose level at 50 mg/kg, po administered once daily for 18 days measured on day 12 post dose (reference value: 23.09 +/- 1.45 mM). Type of data set: functional.
Data set [5] can be described thus: Inhibition of baker's yeast alpha-glucosidase using phenol-alphaD-glycopyranoside as substrate preincubated for 10 mins followed by substrate addition and measured after 30 mins. More on the design: species or system Saccharomyces cerevisiae.
Data set [6] has as its system Mus musculus. The data set can be described thus: Hypoglycemic activity in streptozocin-induced diabetic Kunming mouse assessed as blood glucose level at 50 mg/kg, po administered once daily for 18 days measured on day 6 post dose (reference value: 22.31 +/- 1.05 mM). The data set is classed as functional.
The subject of data set [7] is Mus musculus. Nature of the data set: Hypoglycemic activity in streptozocin-induced diabetic Kunming mouse assessed as blood glucose level at 50 mg/kg, po administered once daily for 18 days measured on day 12 post dose (reference value: 23.27 +/- 1.03 mM). Type of data set: functional.
Data set [8] has as its system Mus musculus. Nature of the data set: Hypoglycemic activity in streptozocin-induced diabetic Kunming mouse assessed as blood glucose level at 50 mg/kg, po administered once daily for 18 days measured on day 1 post dose (reference value: 18.86 +/- 0.7 mM). The data set is classed as functional.
In data set [9] the test system is Mus musculus. Nature of the data set: Hypoglycemic activity in streptozocin-induced diabetic Kunming mouse assessed as reduction in blood glucose level at 50 mg/kg, po measured at 7 hrs post dose. Type of data set: functional, organism-based.
A further data set has as its system NIH3T3. The data set can be described thus: Cytotoxicity against mouse 3T3 cells assessed as growth inhibition measured after 48 hrs by MTT assay. Type of data set: cell-based. The note with it: NIH3T3, 48 h. (Tetrazolium dyes change colour on reduction, which living cells bring about.)
For data set [10], the system named is Mus musculus. The data set can be described thus: Hypoglycemic activity in streptozocin-induced diabetic Kunming mouse assessed as reduction in blood glucose AUC at 50 mg/kg, po treated 30 mins prior to glucose challenge and measured up to 210 mins by OGTT. The data set is classed as functional, organism-based.
Data set [11] can be described thus: Inhibition of baker's yeast alpha-glucosidase using PNPG as substrate after 10 mins by spectrophotometric method. More on the design: species or system Saccharomyces cerevisiae.
A short description of data set [12]: Inhibition of baker's yeast alpha-glucosidase using PNPG as substrate preincubated for 15 mins followed by substrate addition and measured after 5 mins by spectrophotometric method. On the set-up: species or system Saccharomyces cerevisiae.

Calls of active or inactive are those of the source. The calls are words filed in the database; no cut-off is given here.

The Ki is the dissociation constant of the complex between target and ligand, obtained from inhibition or displacement. A high value points to weaker binding. The term Km denotes the concentration of substrate that gives half-maximal velocity. Broadly, the IC50 is the concentration needed to halve the response being measured.

`COc1ccc(/C=C2\C[C@]3(C)[C@H]4C[C@@H](F)[C@]56OC(=O)[C@@]7(CCC(C)(C)C[C@H]75)CC[C@@]6(C)[C@]4(C)CC[C@H]3C(C)(C)C2=O)cc1`: the Activity entry was “Non-Toxic” in data set [1]; 17.49 mM in the data set with Mus musculus [4]; 19.96 mM in the data set with Mus musculus [6]; 13.74 mM in the data set on Mus musculus [7]; 18.61 mM with Mus musculus [8]. Also, the Ki in [2] amounted to 0.52 µM. Also, the outcome in the data set with Mus musculus [3], with Mus musculus [9] and with Mus musculus [10] was Active. Besides, the Km with Saccharomyces cerevisiae stood at 120 µM. Further, the values for the IC50 (in data set [5]; with NIH3T3) were 0.33 µM and more than 300 µM, respectively.

Consider `CC1(C)CC[C@@]23CC[C@]4(C)[C@](OC2=O)([C@H](F)C[C@@H]2[C@@]5(C)C/C(=C\c6ccc(C(F)(F)F)cc6)C(=O)C(C)(C)[C@@H]5CC[C@]24C)[C@@H]3C1`, for which the IC50 stood at 1.51 µM in data set [5] and 1.9 µM in data set [11].

For the compound `CC1(C)CC[C@]2(C(=O)Oc3ccc(C(=O)/C=C/c4ccc(Br)cc4)cc3)CC[C@]3(C)C(=CC[C@@H]4[C@@]5(C)CCC(=O)C(C)(C)[C@@H]5CC[C@]43C)[C@@H]2C1`, in data set [12], the midpoint of inhibition, the IC50, lay at 2.2 µM.

Values taken from ChEMBL document CHEMBL4422652, “Synthesis and biological evaluation of novel oleanolic acid analogues as potential α-glucosidase inhibitors” (Eur J Med Chem, 2019).
